Measured values taken from US20070293451A1, “Regulation ao ApoB by Hsp110 proteins and related compositions and methods” (University of Pittsburgh, priority 2006, published 2007).
Peptide text beside a SMILES is read from it. * marks the point of attachment. 6FAM = O=C1OC2(c3ccc(O)cc3Oc3cc(O)ccc32)c2cc(C(=O)*)ccc21; Ahx = NCCCCCC(=O)O

Columns and labels:
full-length Sse1p = biological target: T1, full-length Sse1p (Saccharomyces cerevisiae, UniProt P32589); experiment: Fluorescence anisotropy binding of labeled luciferase-derived peptide to full-length Sse1p
T1 sequence (P32589 1-693): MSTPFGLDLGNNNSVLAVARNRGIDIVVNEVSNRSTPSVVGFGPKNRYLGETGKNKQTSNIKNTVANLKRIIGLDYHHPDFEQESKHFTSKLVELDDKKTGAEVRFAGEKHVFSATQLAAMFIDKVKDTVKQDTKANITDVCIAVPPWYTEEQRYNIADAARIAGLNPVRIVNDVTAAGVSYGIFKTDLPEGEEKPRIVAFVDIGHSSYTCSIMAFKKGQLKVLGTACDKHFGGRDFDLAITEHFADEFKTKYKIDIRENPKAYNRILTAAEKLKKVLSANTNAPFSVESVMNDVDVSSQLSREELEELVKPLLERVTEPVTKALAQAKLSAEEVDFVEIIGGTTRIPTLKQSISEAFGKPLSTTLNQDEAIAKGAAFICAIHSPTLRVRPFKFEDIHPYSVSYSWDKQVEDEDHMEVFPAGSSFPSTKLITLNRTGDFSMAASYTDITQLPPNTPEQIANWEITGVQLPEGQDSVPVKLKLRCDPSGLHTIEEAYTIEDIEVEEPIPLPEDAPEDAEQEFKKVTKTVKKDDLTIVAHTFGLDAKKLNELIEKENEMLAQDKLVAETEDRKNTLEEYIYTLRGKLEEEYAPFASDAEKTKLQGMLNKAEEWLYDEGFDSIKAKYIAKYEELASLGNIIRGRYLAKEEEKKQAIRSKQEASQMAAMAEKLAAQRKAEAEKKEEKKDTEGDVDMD
Description: (§1) Binding was assessed by fluorescence anisotropy.

ApoB100 = ApoB100 biogenesis and secretion from McArdle cells (pulse-chase) on Hsp110 over-expression; assay type: cell-based, rat; conditions: MTP inhibitor BMS-200150 present, without Hsp110 over-expression, data not shown
Description: FIGS. 9A and 9B show the effect of Hsp110 over-expression on ApoB100 secretion from McArdle cells, a standard rat hepatoma cell model of lipoprotein metabolism. ApoB100 (FIG. 9A) and albumin (FIG. 9B) biogenesis and secretion were assessed by published pulse-chase analytical methods.
An Hsp110 expression vector was obtained from Dr. John Subjeck (Roswell Park Cancer Center, N.Y.), and either that vector or a vector control was introduced into McArdle cells—a rat hepatoma cell line that also expresses full-length ApoB (that is, ApoB100). […] As a control, there was no effect on albumin secretion from these cells, regardless of whether Hsp110 was over-expressed (FIG. 9B). Furthermore, the over-expression of Hsp110 in the McArdle cells in the presence of a microsomal triglyceride transfer protein (MTP) inhibitor (BMS-200150; Jamil, H., D. A. Gordon, D. C. Eustice, C. M. Brooks, J. K. Dickson, Jr., Y. Chen, B. Ricci, C.-H. Chu, T. W. Harrity, C. P. Ciosek, Jr., S. A. Biller, R. E. Gregg, and J. R. Wetterau. 1996. An inhibitor of the microsomal triglyceride transfer protein inhibits apoB secretion from HepG2 cells. Proc Natl Acad Sci USA. 93, 11991-95) increased the percent of apoB recovered in the lysate and medium fractions from 14% to 28% (data not shown).

[1] = biological target: Sse1p peptide binding domain (Saccharomyces cerevisiae, UniProt P32589); conditions: fluorescence anisotropy
Description: (SEQ ID NO: 1) (which derives from firefly luciferase), assessed by fluorescence anisotropy.
as §1

LICGFRVVLMYRF [Unlabeled peptide, unlabeled form of the firefly luciferase-derived peptide]
competition with labeled peptide for binding (full-length Sse1p; data not shown): competes for binding

O=C1c2ccccc2CN1C1CCN(CCC(c2ccccc2)c2ccccc2)CC1 [BMS-200150, reference compound]
percent of apoB recovered in the lysate and medium fractions (ApoB100): 14%

CC[C@H](C)[C@H](NC(=O)[C@H](CC(C)C)NC(=O)CCCCCNC(=O)c1ccc2c(c1)C1(OC2=O)c2ccc(O)cc2Oc2cc(O)ccc21)C(=O)N[C@@H](CS)C(=O)NCC(=O)N[C@@H](Cc1ccccc1)C(=O)N[C@@H](CCCNC(=N)N)C(=O)N[C@H](C(=O)N[C@H](C(=O)N[C@@H](CC(C)C)C(=O)N[C@@H](CCSC)C(=O)N[C@@H](Cc1ccc(O)cc1)C(=O)N[C@@H](CCCNC(=N)N)C(=O)N[C@@H](Cc1ccccc1)C(=O)O)C(C)C)C(C)C [6-carboxyfluorescein-aminohexanoic acid-linked-LICGFRVVLMYRF] ({6FAM-Ahx}-LICGFRVVLMYRF-OH)
Kd (full-length Sse1p): 2 to 3 nM | lower affinity for Sse1p peptide binding domain alone compared with Sse1p [1]: ~100 fold
